{"source": "patent US20120165403A1", "about": "“METHODS OF INHIBITING THE ACTIVITY OF HSP90 AND/OR ARYL HYDROCARBON RECEPTOR” (UNIVERSITY OF ROCHESTER, priority 2004, published 2012)", "key": {"AhR [1]": {"tested_on": "AhR", "type": "biochemical, mouse", "description": "Hepa cytosol (2.5 mg protein/ml) was incubated with a range of concentrations of EGCG (1-200 μM) or EGCG in the presence of 3 nM TCDD for 2 h at room temperature. Treated cytosols (21-25 μg) were mixed with nonspecific DNA (herring sperm), 0.08M NaCl, and 25,000-45,000 cpm of [^32P]-endlabeled oligonucleotide containing a single consensus DRE (Gasiewicz et al., Biochem. Pharmacol. 52:1787-1803 (1996), which is hereby incorporated by reference in its entirety). Samples were subjected to nondenaturing electrophoresis (4% acrylamide) and visualized using a Phosphoimager."}, "AhR [2]": {"tested_on": "AhR", "test": "AhR protein levels by western blotting in Hepa cells", "type": "cell-based, mouse", "details": "over 12 hours", "description": "Hepa cells were plated onto 6-well plates at a density of 5×10^5 cells/well and incubated overnight at 37° C. […] Cells were lysed (0.2% Triton, 5 mM EDTA in PBS) and total protein quantified using the Coomassie Plus Protein Assay Reagent (Pierce, Rockford, Ill.). Protein (30 μg) was separated by SDS-PAGE (7.5% acrylamide resolving gel) and transferred to PVDF membrane (Millipore, Bedford, Mass.). Membranes were probed with antibodies recognizing CYP1A1 (Xenotech, Lenexa, Kans.), AhR (Biomol, Plymouth Meeting, Pa.) and actin (Sigma). The secondary IgG antibodies were coupled to horseradish peroxidase (Jackson Immuno Research, West Grove, Pa.). Both primary and secondary antibodies were used at a dilution of 1:5000 in TBST (50 mM Tris, 300 mM NaCl, 0.5% Tween 20, pH 7.5) containing 5% milk. Proteins were visualized by chemiluminescence (KPL, Gaithersburg, Md.)."}, "AhR [3]": {"biological_target": "T1, AhR (Mus musculus, UniProt P30561)", "T1 construct": "made in house; host or cells: TNT rabbit reticulocyte lysate", "T1 sequence (P30561 10-805 limits assumed)": "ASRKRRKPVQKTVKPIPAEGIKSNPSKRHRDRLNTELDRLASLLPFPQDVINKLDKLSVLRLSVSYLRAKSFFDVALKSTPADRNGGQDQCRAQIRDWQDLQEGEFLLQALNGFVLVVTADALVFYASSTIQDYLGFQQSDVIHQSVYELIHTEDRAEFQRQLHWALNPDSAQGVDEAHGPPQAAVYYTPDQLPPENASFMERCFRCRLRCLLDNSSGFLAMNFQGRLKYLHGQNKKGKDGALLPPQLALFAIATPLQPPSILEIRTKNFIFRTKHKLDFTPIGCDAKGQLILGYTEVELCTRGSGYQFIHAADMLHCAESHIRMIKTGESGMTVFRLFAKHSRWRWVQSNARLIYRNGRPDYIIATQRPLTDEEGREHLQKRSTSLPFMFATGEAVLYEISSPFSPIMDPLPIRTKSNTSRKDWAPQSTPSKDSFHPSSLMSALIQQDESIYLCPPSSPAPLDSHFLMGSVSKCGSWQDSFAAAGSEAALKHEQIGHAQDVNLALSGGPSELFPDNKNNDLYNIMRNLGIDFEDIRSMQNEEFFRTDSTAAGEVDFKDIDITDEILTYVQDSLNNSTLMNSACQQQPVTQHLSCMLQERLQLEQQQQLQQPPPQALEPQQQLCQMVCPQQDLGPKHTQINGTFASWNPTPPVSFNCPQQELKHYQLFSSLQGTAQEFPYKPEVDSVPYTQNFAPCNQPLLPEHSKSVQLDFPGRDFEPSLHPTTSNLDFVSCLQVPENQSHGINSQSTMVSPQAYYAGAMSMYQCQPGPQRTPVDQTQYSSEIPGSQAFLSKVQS", "test": "DNA binding of in vitro translated AhR and ARNT in RRL", "type": "biochemical", "from_the_text": "The data provided above implicate a model where EGCG inhibits release of hsp90 from the AhR complex. This form of hsp90 appears to maintain its interaction with XAP2 (FIG. 4). However, from the above data, it remains to be determined whether 1) the hsp90-XAP2 complex remains bound to the AhR upon EGCG treatment, 2) EGCG prevents ARNT dimerization, 3) EGCG stabilizes the receptor in a different complex upon additional treatment with TCDD, and 4) if other proteins are present in this complex. Findings from the above investigations add some useful insight into the mechanism of action of EGCG. The mouse AhR used for these studies was in vitro transcribed in rabbit reticulocyte lysate (RRL) and immunoprecipitated using an antibody specific for amino acids 12-31. Although this antibody could precipitate the latent and TCDD-activated AhR complex from RRL, it was incapable of precipitating an EGCG-treated AhR. […] Furthermore, titration of Hepa cytosol into the RRL system restored the ability to immunoprecipitate ^35S-methionine-labeled in vitro transcribed AhR. Similar discrepancies between systems were observed utilizing DNA binding as an endpoint. […] This is in direct contrast to the lack of AhR transformation by EGCG observed in Hepa cytosol (FIG. 7). […] This EGCG-induced DNA binding complex could also be attenuated upon titration of Hepa cytosol into RRL. […]"}}, "data": [{"compound": "O=C(O[C@@H]1Cc2c(O)cc(O)cc2O[C@@H]1c1cc(O)c(O)c(O)c1)c1cc(O)c(O)c(O)c1", "note": "[EGCG, epigallocatechin gallate]", "values": [{"measurement": "DRE binding, treatment alone", "setting": "AhR [1]; Hepa cytosol and extracts from treated whole cells, EGCG alone", "result": "DRE binding was not observed"}, {"measurement": "inhibition of TCDD-induced AhR-DRE binding", "setting": "AhR [1]; Hepa cytosol, 100 μM EGCG, 3 nM TCDD, 2 h", "result": "~100", "unit": "%"}, {"measurement": "effect on the TCDD-AhR-DRE shifted band", "setting": "AhR [1]; Hepa cytosol, EGCG 1-200 μM, 3 nM TCDD", "result": "concentration dependent decrease"}, {"measurement": "effect on the TCDD-induced decrease of AhR levels", "setting": "AhR [2]; 200 μM EGCG with 150 pM TCDD", "result": "not exacerbated or prevented"}, {"measurement": "AhR protein levels, treatment alone", "setting": "AhR [2]; EGCG 200 μM or TCDD 150 pM", "result": "not capable of inducing AhR degradation"}, {"measurement": "DNA binding of AhR and ARNT, treatment alone", "setting": "AhR [3]", "result": "formation of a strong DRE-AhR-ARNT shifted complex"}]}]}
